In one data set the test system is RAW 264.7 cells. Briefly: MTT cell viability. The class given is cell-based, mouse. As to conditions: up to 200 μM, 24 h. Here is the method:
RAW 264.7 cells (mouse macrophage cells) were maintained in high-glucose Dulbecco’s modified Eagle medium (DMEM) (Welgene, Daegu, South Korea) supplemented with 10% fetal bovine serum (FBS) (Gibco) and 1% penicillin at 37°C in humidified 5% CO2. Cells (2 × 10^5 cells well^−1) were seeded into DMEM supplemented with 10% FBS medium in a 96-well plate. The MTT assay was performed after culturing the cells in 96-well plates at a density of 2 × 10^5 cells well^−1, followed by treatment with serially diluted PN5, magainin 2, and melittin. After 24 h, the medium was discarded, and 100 μL DMEM and 10% FBS medium containing 0.5 mg mL^−1 MTT were added to each well. After 4 h of incubation, the medium was discarded and dimethyl sulfoxide was added to each well to solubilize the formazan. The optical densities at 570 and 650 nm (OD570 and OD650, respectively) of the treated cells were compared to those of control cells. The hemolytic activity of the peptides was evaluated as the release of hemoglobin from an 8% mRBC suspension. A 100-μL aliquot of the 8% mRBC suspension was added to the wells of a 96-well plate, and 100 μL of peptide solution in phosphate-buffered saline (PBS) was added at a final peptide concentration of 200 μM. After incubation for 1 h at 37°C with shaking (50 rpm), the suspensions were centrifuged at 1,000 × g for 5 min. The absorbance of the supernatant was measured at 414 nm using a Versa Max microplate reader (Molecular Devices). As a control, no hemolysis and complete hemolysis were determined in PBS and 0.1% Triton X-100, respectively. The degree of hemolysis was calculated using the following equation as described in reference: %hemolysis=[(A414withpeptide-A414withPBS)/(A414with0.1%TritonX-100-A414 with PBS)] × 100

A further data set concerns A. baumannii KCTC 2508. The class given is cell-based, Acinetobacter baumannii. As to conditions: microdilution, NB, 18 to 24 h, 37°C, three independent experiments. Here is the method: (§1) Bacterial cells were cultured at 37°C in the appropriate culture media with shaking (180 rpm). Luria-Bertani broth (LB) (244620; BD Difco) was used for E. coli ATCC 25922, ASEC strains, and B. subtilis KCTC 2217. Nutrient broth (NB) (234000; BD Difco) was used for P. aeruginosa ATCC 27853, S. Typhimurium KCTC 1926, and A. baumannii KCTC 2508. Tryptic soy broth (TSB) (211825; BD Difco) was used for S. aureus ATCC 25923. Finally, brain heart infusion (BHI) (237500; BD Difco) was used for L. monocytogenes KCTC 3710. The antimicrobial activity of each peptide was determined using microdilution assays. To this end, 2-fold serial dilution series of each peptide (from 1 to 64 μM) were added to duplicate media with 10 mM sodium phosphate buffer (pH 7.4). Fifty microliters of the peptide and antibiotic solution was added to each well of a 96-well plate (32096, surface nontreatment; SPL Life Sciences). Then, 50 μL of 2 × 10^5 CFU mL^−1 of bacteria was added to each well, and the samples were incubated for 18 to 24 h without shaking at 37°C.
(Broth dilution looks for growth in wells or tubes with falling amounts of substance.)

The next data set deals with S. aureus ATCC 25923. The class given is cell-based, Staphylococcus aureus. As to conditions: microdilution, TSB, 18 to 24 h, 37°C, three independent experiments. Here is the method:
as §1

In another data set the test system is B. subtilis KCTC 2217. The class given is cell-based, Bacillus subtilis. The settings on record: microdilution, LB, 18 to 24 h, 37°C, three independent experiments. Here is the method: as §1

Where no end group is shown, it is not given here.

As a reminder, the MIC is the least concentration at which growth counts as inhibited. The low end stands for inhibition by little substance, the high end for a need for much substance. Consider FKFLARTGKFL-NH2 [PN5], for which the “toxicity, MTT assay” value in the data set with RAW 264.7 cells is reported as “did not show toxicity”. The MIC against A. baumannii KCTC 2508 was determined as 4 µM; against S. aureus ATCC 25923 it was 2 µM; with B. subtilis KCTC 2217, 4 µM.
